From patent publication US6504057B2, “Fluorophenyl-substituted alkenylcarboxylic acid guanidides, process for their preparation, their use as a medicament or diagnostic, and medicament containing them” (Hoechst Aktiengesellschaft, priority 1995, dated 2003)
Structures can show the parent of a compound that is named as a salt.

system: rat heart; details: isolated rat heart; cited from earlier work

| Structure (SMILES) | suppression of artificially produced ventricular fibrillation |
| --- | --- |
| N=C(N)NC(=O)c1nc(Cl)c(N)nc1N [amiloride] | completely suppressed |
| CCN(c1nc(N)c(C(=O)NC(=N)N)nc1Cl)C(C)C [ethylisopropylamiloride] | even more potent than amiloride |

system: not given; details: not given

| melting point [°C] | Structure (SMILES) |
| --- | --- |
| 178 | C/C(=C\c1cc(F)cc(F)c1)C(=O)N=C(N)N (as salt: hydrochloride) [Example 5, E-3-(3,5-Difluorophenyl)-2-methylacrylic acid guanidide hydrochloride] |
| 230 | NC(N)=NC(=O)/C=C/c1cc(F)ccc1F (as salt: hydrochloride) [Example 2, E-3-(2,5-Difluorophenyl)acrylic acid guanidide hydrochloride] |
| 148 | NC(N)=NC(=O)/C=C/c1cccc(F)c1 (as salt: hydrochloride) [Example 1, E-3-(3-Fluorophenyl)acrylic acid guanidide hydrochloride] |
| 235 | NC(N)=NC(=O)/C=C/c1cc(F)cc(F)c1 (as salt: hydrochloride) [Example 3, E-3-(3,5-Difluorophenyl) acrylic acid guanidide hydrochloride] |
| 243 | NC(N)=NC(=O)/C=C/c1ccccc1F (as salt: hydrochloride) [Example 4, E-3-(2-Fluorophenyl)acrylic acid guanidide hydrochloride] |
| 138 | C/C(=C\c1c(F)c(F)cc(F)c1F)C(=O)N=C(N)N (as salt: hydrochloride) [Example 9, E-3-(2,3,5,6-Tetrafluorophenyl)-2-methylacrylic acid guanidide hydrochloride] |
